Experiments:
[1] = molecular target: Ribosomal protein S6 kinase beta-1 (Homo sapiens) (UniProt P23443); assay: Inhibition of human N-terminal GST-tagged p70S6K catalytic domain (1 to 421 residues) expressed in baculovirus expression system coexpressing His-tagged PDK1 (1 to 556 residues) using fluorescence labelled S6K2 peptide substrate at 50 times IC50 by electrophoretic mobility shift assay relative to control
[2] = molecular target: AMP-activated protein kinase, AMPK (Homo sapiens) (UniProt P54646+O43741+P54619+Q9UGJ0+Q9Y478+Q13131+Q9UGI9); assay: Inhibition of human N-terminal GST-tagged AMPKalpha1 (1 to 550 residues)/beta1 (1 to 270 residues)/gamma1 (1 to 331 residues) expressed in baculovirus expression system using fluorescence labelled SAMS peptide substrate at 50 times IC50 by electrophoretic mobility shift assay relative to control
[3] = molecular target: CDK2/Cyclin A2 (Homo sapiens) (UniProt P24941+P20248); assay: Inhibition of full length human N-terminal GST-tagged CDK2 (1 to 298 residues)/Cyclin A2 (1 to 432 residues) expressed in baculovirus expression system using fluorescence labelled modified histone H1 as substrate at 50 times IC50 by electrophoretic mobility shift assay relative to control
[4] = molecular target: Tyrosine-protein kinase SYK (Homo sapiens) (UniProt P43405); assay: Inhibition of full length human N-terminal GST-tagged SYK (1 to 635 residues) expressed in baculovirus expression system using fluorescence labelled Blk/Lyntide as substrate at 50 times IC50 by electrophoretic mobility shift assay relative to control
[5] = molecular target: T1, Serine/threonine-protein kinase Chk1 (Homo sapiens) (UniProt O14757); assay: Inhibition of full length human N-terminal GST-tagged CHK1 (1 to 476 residues) expressed in baculovirus expression system using fluorescence labelled CHKtide as substrate at 50 times IC50 by electrophoretic mobility shift assay relative to control
T1 sequence (whole entry): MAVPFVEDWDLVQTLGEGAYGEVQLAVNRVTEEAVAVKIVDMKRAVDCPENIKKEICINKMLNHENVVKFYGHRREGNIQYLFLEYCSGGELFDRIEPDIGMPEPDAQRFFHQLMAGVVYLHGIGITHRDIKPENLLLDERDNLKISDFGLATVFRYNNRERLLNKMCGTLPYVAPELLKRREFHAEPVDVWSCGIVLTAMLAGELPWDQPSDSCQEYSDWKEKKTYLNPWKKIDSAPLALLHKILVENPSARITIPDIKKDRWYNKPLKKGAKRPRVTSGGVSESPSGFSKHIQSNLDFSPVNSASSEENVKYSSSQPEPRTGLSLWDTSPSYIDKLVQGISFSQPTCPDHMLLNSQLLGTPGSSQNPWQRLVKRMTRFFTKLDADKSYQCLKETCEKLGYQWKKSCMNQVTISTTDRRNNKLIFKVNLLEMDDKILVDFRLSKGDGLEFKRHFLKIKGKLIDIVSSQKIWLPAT

[6] = molecular target: Casein kinase I isoform epsilon (Homo sapiens) (UniProt P49674); assay: Inhibition of human N-terminal GST-tagged CK1epsilon catalytic domain (1 to 348 residues) expressed in baculovirus expression system using fluorescence labelled CKtide as substrate at 50 times IC50 by electrophoretic mobility shift assay relative to control
[7] = molecular target: Tyrosine-protein kinase ABL1 (Homo sapiens) (UniProt P00519); assay: Inhibition of full length human N-terminal His-tagged ABL (2 to 1130 residues) expressed in baculovirus expression system using fluorescence labelled ABLtide as substrate at 50 times IC50 by electrophoretic mobility shift assay relative to control
[8] = molecular target: Mitogen-activated protein kinase 1 (Homo sapiens) (UniProt P28482); assay: Inhibition of full length human N-terminal GST-tagged ERK2 (1 to 360 residues) expressed in Escherichia coli using fluorescence labelled modified Erktide as substrate at 50 times IC50 by electrophoretic mobility shift assay relative to control
[9] = molecular target: Ephrin type-A receptor 2 (Homo sapiens) (UniProt P29317); assay: Inhibition of human N-terminal GST-tagged EPHA2 cytoplasmic domain (572 to 976 residues) expressed in baculovirus expression system using fluorescence labelled Blk/Lyntide as substrate at 50 times IC50 by electrophoretic mobility shift assay relative to control
[10] = molecular target: T2, Testis-specific serine/threonine-protein kinase 1 (Homo sapiens) (UniProt Q9BXA7); assay: Inhibition of full length human N-terminal GST-tagged TSSK1 (1 to 367 residues) expressed in baculovirus expression system using fluorescence labelled GS peptide substrate at 50 times IC50 by electrophoretic mobility shift assay relative to control
T2 sequence (whole entry): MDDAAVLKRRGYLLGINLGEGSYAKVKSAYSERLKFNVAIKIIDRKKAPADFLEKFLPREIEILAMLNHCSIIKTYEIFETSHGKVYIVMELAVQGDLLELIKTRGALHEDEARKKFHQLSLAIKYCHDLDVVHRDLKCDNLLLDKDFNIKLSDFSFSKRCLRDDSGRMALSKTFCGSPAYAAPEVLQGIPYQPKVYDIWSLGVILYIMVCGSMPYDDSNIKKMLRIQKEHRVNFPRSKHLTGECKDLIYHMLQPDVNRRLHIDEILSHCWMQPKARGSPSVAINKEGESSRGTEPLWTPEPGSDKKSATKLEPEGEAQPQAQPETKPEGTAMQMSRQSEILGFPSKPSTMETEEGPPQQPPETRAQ

[11] = molecular target: Mitogen-activated protein kinase 9 (Homo sapiens) (UniProt P45984); assay: Inhibition of human N-terminal GST-tagged JNK2 catalytic domain (1 to 364 residues) expressed in Escherichia coli using fluorescence labelled modified Erktide as substrate at 50 times IC50 by electrophoretic mobility shift assay relative to control
[12] = molecular target: Tyrosine-protein kinase CSK (Homo sapiens) (UniProt P41240); assay: Inhibition of full length human N-terminal GST-tagged CSK (1 to 450 residues) expressed in baculovirus expression system using fluorescence labelled srctide as substrate at 50 times IC50 by electrophoretic mobility shift assay relative to control
[13] = molecular target: T3, Aurora kinase A (Homo sapiens) (UniProt O14965); assay: Inhibition of full length human N-terminal GST-tagged Aurora A (1 to 403 residues) expressed in baculovirus expression system using fluorescence labelled kemptide as substrate at 50 times IC50 by electrophoretic mobility shift assay relative to control
T3 sequence (whole entry): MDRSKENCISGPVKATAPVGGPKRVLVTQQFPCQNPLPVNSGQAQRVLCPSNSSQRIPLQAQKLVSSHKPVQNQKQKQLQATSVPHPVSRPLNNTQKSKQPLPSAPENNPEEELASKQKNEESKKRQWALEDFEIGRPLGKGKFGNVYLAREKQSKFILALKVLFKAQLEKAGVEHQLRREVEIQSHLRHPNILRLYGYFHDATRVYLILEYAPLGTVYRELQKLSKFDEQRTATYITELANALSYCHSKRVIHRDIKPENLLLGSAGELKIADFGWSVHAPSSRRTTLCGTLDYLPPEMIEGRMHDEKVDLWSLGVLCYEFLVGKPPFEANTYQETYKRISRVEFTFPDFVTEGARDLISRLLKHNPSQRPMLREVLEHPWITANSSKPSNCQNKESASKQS

Sequence of Mitogen-activated protein kinase 9 (Homo sapiens) (P45984 whole entry, looked up, the tested form may be a part): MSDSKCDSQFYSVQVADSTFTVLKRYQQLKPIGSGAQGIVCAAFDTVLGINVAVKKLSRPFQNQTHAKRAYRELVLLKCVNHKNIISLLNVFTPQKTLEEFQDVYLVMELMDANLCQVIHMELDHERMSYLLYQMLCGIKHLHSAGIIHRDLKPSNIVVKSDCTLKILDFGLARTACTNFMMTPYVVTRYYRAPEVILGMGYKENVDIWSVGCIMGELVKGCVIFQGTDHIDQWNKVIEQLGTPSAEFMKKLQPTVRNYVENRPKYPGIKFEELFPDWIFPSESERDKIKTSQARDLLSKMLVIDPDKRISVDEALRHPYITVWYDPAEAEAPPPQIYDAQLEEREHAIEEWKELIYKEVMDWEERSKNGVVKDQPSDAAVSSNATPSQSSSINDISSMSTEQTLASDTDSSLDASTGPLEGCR
Sequence of Casein kinase I isoform epsilon (Homo sapiens) (P49674 whole entry, looked up, the tested form may be a part, canonical isoform): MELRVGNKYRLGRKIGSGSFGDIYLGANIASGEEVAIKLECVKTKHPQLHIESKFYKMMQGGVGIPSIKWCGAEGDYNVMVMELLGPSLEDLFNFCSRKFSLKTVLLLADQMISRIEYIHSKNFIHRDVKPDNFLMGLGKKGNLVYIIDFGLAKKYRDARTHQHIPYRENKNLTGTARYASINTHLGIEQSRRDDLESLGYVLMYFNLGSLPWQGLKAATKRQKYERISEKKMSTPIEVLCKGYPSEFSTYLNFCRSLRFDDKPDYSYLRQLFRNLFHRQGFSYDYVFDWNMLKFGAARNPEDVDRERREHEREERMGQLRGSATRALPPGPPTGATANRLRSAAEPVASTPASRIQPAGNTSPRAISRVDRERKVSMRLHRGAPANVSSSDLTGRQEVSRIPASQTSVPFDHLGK
Sequence of Tyrosine-protein kinase CSK (Homo sapiens) (P41240 2-450 limits assumed): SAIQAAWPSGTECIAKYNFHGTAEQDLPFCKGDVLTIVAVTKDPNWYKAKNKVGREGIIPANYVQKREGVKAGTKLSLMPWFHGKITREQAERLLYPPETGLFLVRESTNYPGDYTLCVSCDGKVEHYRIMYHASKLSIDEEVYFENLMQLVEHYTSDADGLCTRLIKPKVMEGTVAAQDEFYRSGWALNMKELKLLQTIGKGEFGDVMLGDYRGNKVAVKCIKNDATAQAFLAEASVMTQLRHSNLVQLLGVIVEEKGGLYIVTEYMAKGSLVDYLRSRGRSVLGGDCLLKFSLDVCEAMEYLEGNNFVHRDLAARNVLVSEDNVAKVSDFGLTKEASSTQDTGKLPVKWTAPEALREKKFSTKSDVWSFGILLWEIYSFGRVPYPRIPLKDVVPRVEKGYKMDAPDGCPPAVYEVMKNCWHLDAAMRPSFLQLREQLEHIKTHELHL
Sequence of Ribosomal protein S6 kinase beta-1 (Homo sapiens) (P23443 whole entry, looked up, the tested form may be a part): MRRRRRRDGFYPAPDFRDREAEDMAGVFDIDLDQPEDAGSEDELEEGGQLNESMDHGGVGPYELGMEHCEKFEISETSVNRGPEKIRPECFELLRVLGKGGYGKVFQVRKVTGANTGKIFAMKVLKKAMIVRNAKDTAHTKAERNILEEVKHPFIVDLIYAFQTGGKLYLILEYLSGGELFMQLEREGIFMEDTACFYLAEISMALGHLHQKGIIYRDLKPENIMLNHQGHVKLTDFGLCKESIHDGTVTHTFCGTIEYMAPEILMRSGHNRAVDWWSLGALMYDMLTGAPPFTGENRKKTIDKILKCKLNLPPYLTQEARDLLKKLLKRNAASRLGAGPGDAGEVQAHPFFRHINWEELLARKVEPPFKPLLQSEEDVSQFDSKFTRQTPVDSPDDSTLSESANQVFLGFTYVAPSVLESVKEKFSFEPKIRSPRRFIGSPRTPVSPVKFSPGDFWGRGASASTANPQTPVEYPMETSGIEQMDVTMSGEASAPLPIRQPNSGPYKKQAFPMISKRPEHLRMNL
Sequence of Tyrosine-protein kinase ABL1 (Homo sapiens) (P00519 whole entry, the tested form may be a part): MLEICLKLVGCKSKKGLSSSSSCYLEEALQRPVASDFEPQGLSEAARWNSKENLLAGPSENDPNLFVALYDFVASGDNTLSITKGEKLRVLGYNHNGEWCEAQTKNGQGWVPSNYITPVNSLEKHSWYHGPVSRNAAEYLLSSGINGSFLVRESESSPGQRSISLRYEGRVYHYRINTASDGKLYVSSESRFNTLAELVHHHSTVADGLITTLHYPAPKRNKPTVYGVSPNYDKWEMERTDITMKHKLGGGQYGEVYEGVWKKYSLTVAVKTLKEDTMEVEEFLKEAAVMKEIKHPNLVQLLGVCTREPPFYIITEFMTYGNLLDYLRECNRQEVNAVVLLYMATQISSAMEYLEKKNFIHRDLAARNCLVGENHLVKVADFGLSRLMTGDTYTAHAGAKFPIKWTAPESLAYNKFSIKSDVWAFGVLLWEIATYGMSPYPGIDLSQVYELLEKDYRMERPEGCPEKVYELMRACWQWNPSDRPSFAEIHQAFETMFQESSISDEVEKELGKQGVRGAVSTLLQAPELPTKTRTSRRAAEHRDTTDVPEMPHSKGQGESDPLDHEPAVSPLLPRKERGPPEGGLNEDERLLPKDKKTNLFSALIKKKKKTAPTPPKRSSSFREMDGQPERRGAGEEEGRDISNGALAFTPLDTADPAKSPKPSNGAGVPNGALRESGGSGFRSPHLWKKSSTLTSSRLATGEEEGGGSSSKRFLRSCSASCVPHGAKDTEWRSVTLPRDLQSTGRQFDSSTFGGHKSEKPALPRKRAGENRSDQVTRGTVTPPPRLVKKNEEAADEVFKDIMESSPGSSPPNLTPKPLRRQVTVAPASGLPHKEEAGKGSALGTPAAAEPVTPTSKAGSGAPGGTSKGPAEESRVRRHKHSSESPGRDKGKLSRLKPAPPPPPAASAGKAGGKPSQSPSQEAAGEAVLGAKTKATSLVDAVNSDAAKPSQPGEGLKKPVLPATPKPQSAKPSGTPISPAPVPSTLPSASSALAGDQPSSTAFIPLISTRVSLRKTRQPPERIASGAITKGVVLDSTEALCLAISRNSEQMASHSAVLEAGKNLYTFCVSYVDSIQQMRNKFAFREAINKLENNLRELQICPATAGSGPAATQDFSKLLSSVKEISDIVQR
Sequence of Ephrin type-A receptor 2 (Homo sapiens) (P29317 whole entry, the tested form may be a part): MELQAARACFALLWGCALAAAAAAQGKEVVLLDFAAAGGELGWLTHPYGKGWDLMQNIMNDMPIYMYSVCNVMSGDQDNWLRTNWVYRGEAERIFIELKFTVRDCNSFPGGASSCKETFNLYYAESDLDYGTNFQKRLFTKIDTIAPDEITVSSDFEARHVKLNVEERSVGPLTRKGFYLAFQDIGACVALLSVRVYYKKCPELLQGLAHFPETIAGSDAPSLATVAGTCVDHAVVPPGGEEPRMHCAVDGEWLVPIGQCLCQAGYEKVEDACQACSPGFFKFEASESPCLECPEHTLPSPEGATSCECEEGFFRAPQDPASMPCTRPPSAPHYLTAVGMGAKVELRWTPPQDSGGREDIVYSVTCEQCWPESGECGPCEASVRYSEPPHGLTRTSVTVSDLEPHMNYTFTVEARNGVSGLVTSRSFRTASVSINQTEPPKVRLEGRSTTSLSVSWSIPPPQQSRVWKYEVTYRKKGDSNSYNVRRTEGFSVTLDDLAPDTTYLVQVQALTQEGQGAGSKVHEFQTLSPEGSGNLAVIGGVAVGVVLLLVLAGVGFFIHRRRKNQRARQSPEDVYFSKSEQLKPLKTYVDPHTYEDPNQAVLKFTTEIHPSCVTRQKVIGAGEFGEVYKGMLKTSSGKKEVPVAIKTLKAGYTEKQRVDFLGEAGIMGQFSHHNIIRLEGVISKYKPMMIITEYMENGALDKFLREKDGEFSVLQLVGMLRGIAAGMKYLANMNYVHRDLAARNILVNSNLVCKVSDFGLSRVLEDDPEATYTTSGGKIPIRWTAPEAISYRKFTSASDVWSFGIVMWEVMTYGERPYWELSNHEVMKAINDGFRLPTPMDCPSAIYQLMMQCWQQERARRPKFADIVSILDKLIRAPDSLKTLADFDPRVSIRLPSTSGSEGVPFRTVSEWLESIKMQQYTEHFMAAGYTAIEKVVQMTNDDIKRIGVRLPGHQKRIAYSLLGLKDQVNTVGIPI
Sequence of Mitogen-activated protein kinase 1 (Homo sapiens) (P28482 whole entry, the tested form may be a part): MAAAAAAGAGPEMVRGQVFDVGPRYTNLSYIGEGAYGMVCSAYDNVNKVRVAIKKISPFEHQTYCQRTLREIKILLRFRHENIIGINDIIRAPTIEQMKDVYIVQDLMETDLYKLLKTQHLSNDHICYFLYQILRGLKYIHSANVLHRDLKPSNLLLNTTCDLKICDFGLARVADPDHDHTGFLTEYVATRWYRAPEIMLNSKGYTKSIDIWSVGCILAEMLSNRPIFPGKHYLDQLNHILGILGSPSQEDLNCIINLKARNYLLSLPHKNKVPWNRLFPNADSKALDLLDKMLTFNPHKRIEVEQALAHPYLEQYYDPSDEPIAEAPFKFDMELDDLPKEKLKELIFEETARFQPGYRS

O=C(Nc1ccc(C(=O)N2CCN(c3ccccc3)CC2)cc1)c1n[nH]c2ccccc12
inhibition [1]: 43% | inhibition [2]: 18% | inhibition [3]: 14.9% | inhibition [4]: 40.2% | inhibition [5]: 8% | inhibition [6]: 21.3% | inhibition [7]: 3.9% | inhibition [8]: -0.8% | inhibition [9]: -1.6% | inhibition [10]: 4.3% | inhibition [11]: 9.3% | inhibition [12]: -5% | inhibition [13]: 31.3%

O=C(Nc1ccc(CN2CCN(c3ccccc3)CC2)cc1)c1n[nH]c2ccccc12
inhibition [1]: 17.8% | inhibition [2]: 9.2% | inhibition [3]: 4.5% | inhibition [4]: 29.7% | inhibition [5]: 1% | inhibition [6]: 19.3% | inhibition [7]: 3.4% | inhibition [8]: -2.1% | inhibition [9]: 0.9% | inhibition [10]: 1% | inhibition [11]: -1.1% | inhibition [12]: -4.3% | inhibition [13]: 6.1%

O=C(Nc1ccccc1)c1n[nH]c2ccccc12
inhibition [1]: 47.3% | inhibition [2]: 46% | inhibition [3]: 86.3% | inhibition [4]: 73.5% | inhibition [5]: 10.9% | inhibition [6]: 51.3% | inhibition [7]: 5.3% | inhibition [8]: 7% | inhibition [9]: 0.6% | inhibition [10]: 12.9% | inhibition [11]: 24.5% | inhibition [12]: -0.5% | inhibition [13]: 45.2%

Reference: ChEMBL document CHEMBL3792292, “Development of a potent and selective FLT3 kinase inhibitor by systematic expansion of a non-selective fragment-screening hit” (Bioorg Med Chem Lett, 2016)
